IC50 and IC90 data for 23 compounds are collected here from PubChem BioAssay AID434987 (Southern Research Specialized Biocontainment Screening …, 2010).

A word on the IC50: it is the concentration needed to halve the response being measured. Broadly, the IC90 is the concentration at which the effect reaches the 90% level.

Calls of active or inactive are those of the source. The rule behind the calls is not given here.

The experiment relates to M. tuberculosis H37Rv growth inhibition with meropenem. The experiment is described as follows: dose response, H37Rv, with and without meropenem (AID 434987).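 Note: growth over 7 days at 37 °C before Alamar Blue read on day 9.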
[1] abbreviates: M. tuberculosis H37Rv growth inhibition, measured here: IC50 without meropenem.
Where [2] appears, read: M. tuberculosis H37Rv growth inhibition, measured here: IC90 without meropenem.
Setting [3] is: measured here: IC90 with meropenem.

Turning to `COc1ccccc1CNC(=O)c1ccc(SC)cc1OC`, the IC50 was 49.8 µM (inactive). Moreover, the half-maximal inhibitory concentration (IC50) under setting [1] was 83.5 µM. Further, the IC90 under setting [2] is > 100 µM. Besides, the IC90 under setting [3] was > 100 µM.

Turning to `COc1ccc(C(=O)Nc2ccc(C(=O)OCC(=O)c3ccccc3)cc2)cc1`, the IC50 was > 100 µM (inactive). Moreover, the IC50 under setting [1] was > 100 µM. Also, under setting [2], the IC90 is > 100 µM. Also, the IC90 under setting [3] was > 100 µM.

Consider `Cc1c(C=O)c(C=O)c(C)n1Cc1ccccc1`, for which the IC50 is 31.9 µM (inactive). Further, under setting [1], the IC50 is 52 µM. In addition, under setting [2], the IC90 was > 100 µM. This compound yielded an IC90 under setting [3] of 69.3 µM.

Regarding `CCCCNC(=O)c1onc(CSc2ccccc2CC)c1C(=O)O`, the IC50 is 22.3 µM (inactive). Moreover, the IC50 under setting [1] is 44.7 µM. Also, the concentration for an effect of 90% (IC90) under setting [2] was > 100 µM. This compound also returned an IC90 under setting [3] of 23.7 µM.

In the case of `O=C(Cc1cccc2ccccc12)N/N=C/c1ccc(OC(=O)/C=C/c2ccco2)cc1`, the IC50 is 69 µM (inactive). Besides, the IC50 under setting [1] is > 100 µM. Besides, the IC90 under setting [2] is > 100 µM. Further, under setting [3], the IC90 was > 100 µM.

As for `CCCn1c2ccccc2c2nnc(SCC(=O)OCC)nc21`, the IC50 was 27.7 µM (inactive). The compound further displayed an IC50 under setting [1] of 29.1 µM. Besides, the IC90 under setting [2] is > 50 µM. The IC90 under setting [3] was > 100 µM.

With `CC(C)c1ccc(/C=C/C(=O)NC2CCCCC2)cc1`, the IC50 is 38.2 µM. Besides, under setting [1], the IC50 was > 100 µM. Also, the IC90 under setting [2] was > 100 µM. Besides, under setting [3], the IC90 was > 100 µM.

On to `N#Cc1cc2c(nc1SCC(=O)Nc1sc3c(c1C#N)CCC3)CCCC2`, for which the IC50 is > 100 µM (inactive). In addition, the IC50 under setting [1] was > 100 µM. In addition, the IC90 under setting [2] was > 100 µM. The IC90 under setting [3] was > 100 µM.

Consider `COc1cccc(/C=N/Nc2nc(N3CCCC3)nc(N3CCCC3)n2)c1O`, for which the IC50 is 8.14 µM. The compound further showed an IC50 under setting [1] of 25.1 µM. Moreover, the IC90 under setting [2] stood at 63.7 µM. For the same compound, the IC90 under setting [3] amounted to 36.1 µM.

For `Cc1nnc(SCC2=C(C(=O)O)N3C(=O)C(NC(=O)COc4ccc(F)cc4)C3SC2)s1` (configuration not stated), the IC50 is 1.74 µM. Further, the IC50 under setting [1] came to 99 µM. Moreover, under setting [2], the IC90 was > 100 µM. Under setting [3], the IC90 turned out to be 9.33 µM.

For the compound `O=C(Nc1cccc(Cl)c1N1CCOCC1)c1ccc([N+](=O)[O-])o1`, the IC50 was 0.909 µM. In addition, the IC50 under setting [1] is 11 µM. The IC90 under setting [2] is > 100 µM. The same compound had an IC90 under setting [3] of 38.2 µM.

`Cc1ccc(C(=O)NCCc2nnc3ccc(SCC(=O)Nc4ccccc4C)nn23)cc1`: the IC50 is > 100 µM (inactive). In addition, the IC50 under setting [1] was > 100 µM. The 90% effect concentration (IC90) under setting [2] is > 100 µM. In addition, the IC90 under setting [3] was > 100 µM.

As to `O=c1[nH]c(C2CCN(S(=O)(=O)c3ccc(S(=O)(=O)NC4CC4)cc3)CC2)nc2c1nnn2Cc1ccc(F)cc1`, the IC50 was > 100 µM (inactive). Under setting [1], the IC50 was > 100 µM. The IC90 under setting [2] is > 100 µM. In addition, the IC90 under setting [3] is > 100 µM.

Regarding `O=C(CCN1CCOCC1)c1ccc(N2CCCCC2)cc1`, the IC50 is 14 µM (inactive). This compound had an IC50 under setting [1] of 27.5 µM. Also, the IC90 under setting [2] was 37.3 µM. Under setting [3], this compound gave an IC90 of 72.7 µM.

Regarding `OCCOCCn1c(C2CCCN2c2nc(-c3ccc(F)cc3)cs2)nc2cc(Cl)c(Cl)cc21` (configuration not stated), the IC50 is > 100 µM (inactive). For the same compound, the IC50 under setting [1] is > 100 µM. For the same compound, the IC90 under setting [2] was > 100 µM. Besides, the IC90 under setting [3] is > 100 µM.

Turning to `COc1cc(C(=O)Oc2cccnc2)cc(OC)c1OC`, the IC50 was 5.8 µM. Under setting [1], this compound came in with an IC50 of 48.4 µM. Also, the IC90 under setting [2] is > 100 µM. Moreover, the IC90 under setting [3] came to 13.6 µM.

Consider `Cc1ccc(S(=O)(=O)Nc2cccc3cccnc23)c([N+](=O)[O-])c1`, for which the IC50 was 1.1 µM. The same compound had an IC50 under setting [1] of 9.07 µM. Under setting [2], this compound registered an IC90 of 12.4 µM. The IC90 under setting [3] came out at 4.7 µM.

Regarding `COc1ccc(CCNCc2csc3nc4ccccc4n23)cc1OC`, the IC50 was 50 µM (inactive). The IC50 under setting [1] is 93.7 µM. Under setting [2], the IC90 is > 100 µM. Also, under setting [3], the IC90 is > 100 µM.

Take `COCCCn1c(=O)/c(=C\c2cccc(OC)c2OC)s/c1=C(/C#N)C(=O)Nc1ccc(C(=O)O)cc1`: the IC50 is 5 µM. The same compound displayed an IC50 under setting [1] of 14.6 µM. The same compound returned an IC90 under setting [2] of 31.4 µM. The IC90 under setting [3] was found to be 24.6 µM.

For `CN1C2CCC1CC(OC(=O)c1ccc([N+](=O)[O-])cc1)C2` (configuration not stated), the IC50 is > 100 µM (inactive). In addition, the IC50 under setting [1] is > 100 µM. For the same compound, the IC90 under setting [2] is > 100 µM. In addition, the IC90 under setting [3] was > 100 µM.

With `Cc1ccsc1C(=O)NNC(=O)c1csc(N2CCOCC2)n1`, the IC50 is 62.7 µM (inactive). The IC50 under setting [1] was > 100 µM. Moreover, the IC90 under setting [2] was > 100 µM. For the same compound, under setting [3], the IC90 was > 100 µM.

As to `O=C(N/N=C/c1c(Cl)cccc1Cl)c1cccc(F)c1`, the IC50 is > 100 µM (inactive). Besides, under setting [1], the IC50 is > 100 µM. In addition, the IC90 under setting [2] is > 100 µM. Moreover, the IC90 under setting [3] is > 100 µM.

As for `CCOC(=O)c1c(C)nc2sc(C(=O)Nc3ccccc3)c(N)c2c1-c1ccc(OC)cc1`, the IC50 was > 100 µM (inactive). For the same compound, under setting [1], the IC50 was > 100 µM. Under setting [2], the IC90 was > 100 µM. The IC90 under setting [3] was > 100 µM.
